Like-named read-outs stand apart in the source and are kept apart here.
Assays:
[1] = log P determination (neutral / acidic, pH 2.3)
Sphaerotheca fuliginea = test: Sphaerotheca test (cucumber)/protective; type: in vivo; conditions: Podosphaera fuliginea, 168 h, 100 ppm active substance, protective, evaluation 7 days after inoculation, read-out: degree of effectiveness
Method: Sphaerotheca Test (Cucumber)/Protective [table] To prepare a suitable active substance composition, 1 part by weight of active substance is mixed with the given amounts of solvents and emulsifier and the concentrate is diluted to the desired concentration using water. For the testing of protective effectiveness, young plants are sprayed with the active substance composition in the application rate given. After the spray coating has been dried on, the plants are inoculated with an aqueous suspension of spores of Sphaerotheca fuliginea. The plants are then placed in a greenhouse at approximately 23° C. and a relative humidity of approximately 70%. Evaluation is carried out 7 days after the inoculation. In this connection, 0% means a degree of effectiveness corresponding to that of the control, while a degree of effectiveness of 100% means that no infestation is observed.

Uromyces appendiculatus = test: Uromyces test (beans)/protective; type: in vivo; conditions: 240 h, 100 ppm active substance, protective, evaluation 10 days after inoculation, read-out: degree of effectiveness
Method: Uromyces Test (Beans)/Protective [table] To prepare a suitable active substance composition, 1 part by weight of active substance is mixed with the given amounts of solvents and emulsifier and the concentrate is diluted to the desired concentration using water. For the testing of protective effectiveness, young plants are sprayed with the active substance composition in the application rate given. After the spray coating has been dried on, the plants are inoculated with an aqueous suspension of the spores of the bean rust pathogen Uromyces appendiculatus and then remain in an incubation chamber at approximately 20° C. and 100% relative humidity for 1 day. The plants are then placed in a greenhouse at approximately 21° C. and a relative humidity of approximately 90%. Evaluation is carried out 10 days after the inoculation. In this connection, 0% means a degree of effectiveness corresponding to that of the control, while a degree of effectiveness of 100% means that no infestation is observed.

Phakopsora pachyrhizi = test: Phakopsora test (soya)/protective; type: in vivo; conditions: 264 h, 100 ppm active substance, protective, evaluation 11 days after inoculation, read-out: degree of effectiveness
Method: Phakopsora Test (Soya)/Protective
(§1) To prepare a suitable active substance composition, 1 part by weight of active substance is mixed with the given amounts of solvent and emulsifier and the concentrate is diluted to the desired concentration using water.
For the testing of protective effectiveness, young plants are sprayed with the active substance composition in the application rate given. After the spray coating has been dried on, the plants are inoculated with an aqueous suspension of the spores of Phakopsora pachyrhizi and then remain in an incubation chamber at approximately 20° C. and 80% relative humidity for 1 day.
Evaluation is carried out 11 days after the inoculation. In this connection, 0% means a degree of effectiveness corresponding to that of the control, while a degree of effectiveness of 100% means that no infestation is observed.

Alternaria solani = test: Alternaria test (tomato)/protective; type: in vivo; conditions: 168 h, 500 ppm active substance, protective, evaluation 7 days after inoculation, read-out: degree of effectiveness
Method: Alternaria Test (Tomato)/Protective [table] To prepare a suitable active substance composition, 1 part by weight of active substance is mixed with the given amounts of solvent and emulsifier and the concentrate is diluted to the desired concentration using water. For the testing of protective effectiveness, young tomato plants are sprayed with the active substance composition in the application rate given. 1 day after the treatment, the plants are inoculated with a suspension of the spores of Alternaria solani and then stand at 100% relative humidity and 20° C. for 24 h. Subsequently, the plants stand at 96% relative humidity and a temperature of 20° C. Evaluation is carried out 7 days after the inoculation. In this connection, 0% means a degree of effectiveness corresponding to that of the control, while a degree of effectiveness of 100% means that no infestation is observed.

Pyrenophora teres = Pyrenophora teres test (barley)/protective; type: in vivo; conditions: 500 ppm active substance, protective, evaluation 7-9 days after inoculation, read-out: degree of effectiveness
Method: Pyrenophora teres Test (Barley)/Protective
as §1
For the testing of protective effectiveness, young barley plants are sprayed with the active substance composition in the application rate given. 1 day after the treatment, the plants are inoculated with an aqueous suspension of the spores of Pyrenophora teres and then remain at 100% relative humidity and 20° C. for 48 h. Subsequently, the plants are placed in a greenhouse at 80% relative humidity and a temperature of 20° C.
Evaluation is carried out 7-9 days after the inoculation. In this connection, 0% means a degree of effectiveness corresponding to that of the control, while a degree of effectiveness of 100% means that no infestation is observed.

[2] = system: Blumeria graminis f.sp. hordei; test: Blumeria graminis test (barley)/protective; type: in vivo; conditions: 168 h, 1000 ppm active substance, protective, evaluation 7 days after inoculation, read-out: degree of effectiveness
Method: Blumeria graminis Test (Barley)/Protective
as §1
For the testing of protective effectiveness, young plants are sprayed with the active substance composition in the application rate given.
After the spray coating has been dried on, the plants are dusted with spores of Blumeria graminis f.sp. hordei.
The plants are placed in a greenhouse at a temperature of approximately 20° C. and a relative humidity of approximately 80%, in order to encourage the development of mildew pustules.
Evaluation is carried out 7 days after the inoculation. In this connection, 0% means a degree of effectiveness corresponding to that of the control, while a degree of effectiveness of 100% means that no infestation is observed.

[3] = system: Puccinia recondita var. tritici; test: Puccinia test (wheat)/protective; type: in vivo; conditions: 240 h, 1000 ppm active substance, protective, evaluation 10 days after inoculation, read-out: degree of effectiveness
Method: Puccinia Test (Wheat)/Protective
as §1
For the testing of protective effectiveness, young plants are sprayed with the active substance composition in the application rate given. After the spray coating has been dried on, the plants are sprayed with a suspension of the conidia of Puccinia recondita var. tritici. The plants remain in an incubation chamber at 20° C. and 100% relative humidity for 48 hours.
The plants are then placed in a greenhouse at a temperature of approximately 20° C. and a relative humidity of 80%, in order to encourage the development of rust pustules.
Evaluation is carried out 10 days after the inoculation. In this connection, 0% means a degree of effectiveness corresponding to that of the control, while a degree of effectiveness of 100% means that no infestation is observed.

Row | Molecule | log P acidic [1] | pest or weed control at 100 ppm (Sphaerotheca fuliginea) [%] | pest or weed control at 100 ppm (Uromyces appendiculatus) [%] | pest or weed control at 100 ppm (Phakopsora pachyrhizi) [%] | pest or weed control at 500 ppm (Alternaria solani) [%] | pest or weed control at 500 ppm (Pyrenophora teres) [%] | pest or weed control at 1000 ppm [2] [%] | pest or weed control at 1000 ppm [3] [%] | logP (physchem) | log P neutral ([1]; neutral) | logP (physchem; pH 2.3) | log P (pH 2.3)
1 | Cc1cc(Oc2nc(C3CC3)ns2)c(C)cc1/N=C/N1CCCCC1 [Compound 3, 4-[(3-Cyclopropyl-1,2,4-thiadiazol-5-yl)oxy]-2,5-dimethyl-N-[(1E)-piperidin-1-ylmethyl-idene]aniline] | 1.75 |  |  |  |  |  |  |  |  |  |  | 
2 | Cc1cc(Oc2nc(C3CC3)ns2)c(C)cc1/N=C/N1CCSCC1 [Compound 4, 4-[(3-Cyclopropyl-1,2,4-thiadiazol-5-yl)oxy]-2,5-dimethyl-N-[(1E)-thiomorpholin-4-ylmethyl-idene]aniline] | 1.73 |  |  |  |  |  |  |  |  |  |  | 
3 | CCN(C)C=Nc1cc(C)c(Oc2nc(C3(Cl)CC3)cs2)cc1C [Compound 5, N′-(4-{[4-(1-Chlorocyclopropyl)-1,3-thiazol-2-yl]oxy}-2,5-dimethylphenyl)-N-ethyl-N-methyl-imidoformamide] |  | ≥ 70 | ≥ 70 | ≥ 80 | ≥ 70 | ≥ 70 | ≥ 70 | ≥ 70 | 4.8 |  |  | 
4 | Cc1cc(Oc2nc(C3(Cl)CC3)cs2)c(C)cc1/N=C/N1CCCCC1 [Compound 6, 4-{[4-(1-Chlorocyclopropyl)-1,3-thiazol-2-yl]oxy}-2,5-dimethyl-N-[(1E)-piperidin-1-ylmethyl-idene]aniline] |  |  |  |  |  |  |  |  |  | 5.49 |  | 
5 | CCN(C)C=Nc1cc(C)c(Oc2nc(C3(Cl)CC3)c(Cl)s2)cc1C [Compound 7, N′-(4-{[5-Chloro-4-(1-chlorocyclopropyl)-1,3-thiazol-2-yl]oxy}-2,5-dimethylphenyl)-N-ethyl-N-methylimidoformamide] |  | ≥ 70 | ≥ 70 | ≥ 80 | ≥ 70 | ≥ 70 | ≥ 70 | ≥ 70 |  |  | 1.82 | 
6 | Cc1cc(Oc2nc(C3(Cl)CC3)c(Cl)s2)c(C)cc1/N=C/N1CCCCC1 [Compound 8, 4-{[5-Chloro-4-(1-chlorocyclopropyl)-1,3-thiazol-2-yl]oxy}-2,5-dimethyl-N-[(1E)-piperidin-1-ylmethylidene]aniline] |  | ≥ 70 | ≥ 70 | ≥ 80 | ≥ 70 | ≥ 70 | ≥ 70 | ≥ 70 | 6.02 |  | 2.47 | 
7 | CCN(C)C=Nc1cc(C)c(Oc2nc(C3(C)CC3)ns2)cc1C [Compound 9, N′-(2,5-Dimethyl-4-{[3-(1-methylcyclopropyl)-1,2,4-thiadiazol-5-yl]oxy}phenyl)-N-ethyl-N-methylimidoformamide] |  | ≥ 70 | ≥ 70 | ≥ 80 | ≥ 70 | ≥ 70 | ≥ 70 | ≥ 70 |  |  | 1.94 | 
8 | Cc1cc(Oc2nc(C3(C)CC3)ns2)c(C)cc1/N=C/N1CCCCC1 [Compound 11, 5-Dimethyl-4-{[3-(1-methylcyclopropyl)-1,2,4-thiadiazol-5-yl]oxy}-N-[(1E)-piperidin-1-yl-methylidene]aniline] | 2.13 |  |  |  |  |  |  |  |  |  |  | 
9 | CCN(C)C=Nc1cc(C)c(Oc2nc(C3CC3C)ns2)cc1C (stereo not shown) [Compound 14, N′-(2,5-Dimethyl-4-{[3-(2-methylcyclopropyl)-1,2,4-thiadiazol-5-yl]oxy}phenyl)-N-ethyl-N-methylimidoformamide] |  | ≥ 70 | ≥ 70 | ≥ 80 | ≥ 70 | ≥ 70 | ≥ 70 | ≥ 70 |  |  | 1.96 | 
10 | Cc1cc(Oc2nc(C3CC3C)ns2)c(C)cc1N=CN(C)C(C)C (stereo not shown) [Compound 15, N′-(2,5-Dimethyl-4-{[3-(2-methylcyclopropyl)-1,2,4-thiadiazol-5-yl]oxy}phenyl)-N-methyl-N-(1-methylethyl)imidoformamide] |  | ≥ 70 | ≥ 70 | ≥ 80 | ≥ 70 | ≥ 70 | ≥ 70 | ≥ 70 |  |  | 1.74 | 
11 | CCN(C)C=Nc1cc(C)c(Oc2nc(C3(C)CC3)c(Cl)s2)cc1C [Compound 21, N′-(4-{[5-Chloro-4-(1-methylcyclopropyl)-1,3-thiazol-2-yl]oxy}-2,5-dimethylphenyl)-N-ethyl-N-methylimidoformamide] |  | ≥ 70 | ≥ 70 | ≥ 80 | ≥ 70 | ≥ 70 | ≥ 70 | ≥ 70 | 6 |  | 1.97 | 
12 | Cc1cc(Oc2nc(C3(C)CC3)cs2)c(C)cc1/N=C/N1CCCCC1 [Compound 23, 2,5-Dimethyl-4-{[4-(1-methylcyclopropyl)-1,3-thiazol-2-yl]oxy}-N-[(1E)-piperidin-1-ylmethyl-idene]aniline] | 2.05 |  |  |  |  |  |  |  |  |  |  | 
13 | [5-Chloro-4-(1-methylcyclopropyl)-1,3-thiazol-2-yl]oxy-2,5-dimethylaniline |  |  |  |  |  |  |  |  |  |  |  | 4.13

Reference: patent US20100285957A1, “THIAZOLYLOXYPHENYLAMIDINES OR THIADIAZOLYLOXYPHENYLAMIDINES AND THEIR USE AS FUNGICIDES” (Bayer CropScience AG, priority 2007, published 2010)
